Data taken from ChEMBL document CHEMBL4321815, “Discovery of an Extremely Potent Thiazine-Based β-Secretase Inhibitor with Reduced Cardiovascular and Liver Toxicity at a Low Projected Human Dose” (J Med Chem, 2019).

What was measured:
[1] = AUC in Cynomolgus monkey at 2.5 mg/kg, po by LC/MS/MS analysis; type: ADME, organism-based, Macaca fascicularis; settings: in vivo
Mus musculus = assay: In vivo inhibition of BACE1 in Crl:CD1(ICR) mouse assessed as reduction in amyloidbeta level in brain at 1 mg/kg, po after 2 to 6 hrs by ELISA relative to control; type: functional
[2] = Metabolic stability in cynomolgus monkey hepatocytes at 2 uM incubated for 2 hr; type: ADME, cell-based, Macaca fascicularis, Hepatocyte; settings: read-out: Stability
[3] = Clearance in Cynomolgus monkey at 0.5 mg/kg, iv by LC/MS/MS analysis; type: ADME, organism-based, Macaca fascicularis; settings: in vivo
[4] = Metabolic stability in rat hepatocytes at 2 uM incubated for 2 hr; type: ADME, cell-based, Hepatocyte; settings: read-out: Stability
[5] = Fraction unbound in monkey plasma after 24 hrs by equilibrium dialysis based LC-MS/MS analysis; type: ADME, cell-free, Macaca mulatta; settings: rhesus monkey
[6] = Cmax in Sprague-Dawley rat at 1 mg/kg, po by LC/MS/MS analysis; type: ADME, organism-based; design: dose 1 mg/kg, route oral; settings: in vivo
[7] = AUC in Beagle dog at 6 mg/kg/day, po administered for 2 weeks; type: ADME, organism-based, Canis lupus familiaris; settings: in vivo
[8] = Metabolic stability in mouse hepatocytes at 2 uM incubated for 2 hr; type: ADME, cell-based, Hepatocyte; settings: read-out: Stability
[9] = Fraction unbound in mouse brain at 5 uM incubated for 5 hrs by HPLC-MS/MS analysis; type: ADME, tissue-based
Cathepsin D = Cathepsin D (Homo sapiens, UniProt P07339); assay: Inhibition of Cathepsin D (unknown origin)
Chain of Cathepsin D (P07339 65-162 limits assumed): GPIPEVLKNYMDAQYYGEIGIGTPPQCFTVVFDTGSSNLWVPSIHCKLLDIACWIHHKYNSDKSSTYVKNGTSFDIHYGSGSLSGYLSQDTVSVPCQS
Chain of Cathepsin D (P07339 169-412 limits assumed): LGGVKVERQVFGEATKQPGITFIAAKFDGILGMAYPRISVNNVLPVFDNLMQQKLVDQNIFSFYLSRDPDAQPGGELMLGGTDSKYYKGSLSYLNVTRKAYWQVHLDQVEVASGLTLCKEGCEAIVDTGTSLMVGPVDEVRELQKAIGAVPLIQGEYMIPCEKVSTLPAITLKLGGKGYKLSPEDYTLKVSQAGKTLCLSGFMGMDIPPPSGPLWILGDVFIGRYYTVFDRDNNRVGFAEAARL

[10] = Tmax in mouse at 2.5 mg/kg, po; type: ADME, organism-based; settings: in vivo
[11] = Tmax in Cynomolgus monkey at 2.5 mg/kg, po by LC/MS/MS analysis; type: ADME, organism-based, Macaca fascicularis; settings: in vivo
[12] = Free drug level in Crl:CD1(ICR) mouse brain at 3 mg/kg, po at 6 hrs; type: ADME, organism-based; settings: in vivo
[13] = Half life in dog at 0.5 mg/kg, iv; type: ADME, organism-based, Canis lupus familiaris; settings: in vivo
[14] = Volume of distribution at steady state in Cynomolgus monkey at 0.5 mg/kg, iv by LC/MS/MS analysis; type: ADME, organism-based, Macaca fascicularis; settings: in vivo, read-out: Vdss
[15] = Toxicity in anesthetized guinea-pig at 0.19 to 6 mg/kg, iv administered for 5 mins; type: organism-based, Cavia porcellus; settings: in vivo
[16] = Oral bioavailability in mouse at 2.5 mg/kg; type: ADME, organism-based; settings: in vivo
[17] = Clearance in mouse at 0.5 mg/kg, iv; type: ADME, organism-based; settings: in vivo
[18] = Metabolic stability in dog hepatocytes at 2 uM incubated for 2 hr; type: ADME, cell-based, Canis lupus familiaris, Hepatocyte; settings: read-out: Stability
[19] = AUC in Sprague-Dawley rat at 2.5 mg/kg, po by LC/MS/MS analysis; type: ADME, organism-based; settings: in vivo
[20] = Fraction unbound in human plasma after 24 hrs by equilibrium dialysis based LC-MS/MS analysis; type: ADME, cell-free
[21] = Fraction unbound in dog plasma after 24 hrs by equilibrium dialysis based LC-MS/MS analysis; type: ADME, cell-free, Canis lupus familiaris
[22] = Oral bioavailability in Cynomolgus monkey at 2.5 mg/kg by LC/MS/MS analysis; type: ADME, organism-based, Macaca fascicularis; settings: in vivo
[23] = Volume of distribution at steady state in dog at 0.5 mg/kg, iv; type: ADME, organism-based, Canis lupus familiaris; settings: in vivo, read-out: Vdss
[24] = Tmax in Sprague-Dawley rat at 2.5 mg/kg, po by LC/MS/MS analysis; type: ADME, organism-based; settings: in vivo
[25] = Cmax in Sprague-Dawley rat at 2.5 mg/kg, po by LC/MS/MS analysis; type: ADME, organism-based; design: dose 2.5 mg/kg, route oral; settings: in vivo
Canis familiaris = species: Canis familiaris; assay: animal or person; type: functional, organism-based; settings: Canis lupus familiaris, Beagle
[26] = Half life in mouse at 0.5 mg/kg, iv; type: ADME, organism-based; settings: in vivo
[27] = Volume of distribution at steady state in mouse at 0.5 mg/kg, iv; type: ADME, organism-based; settings: in vivo, read-out: Vdss
[28] = Drug level in Crl:CD1(ICR) mouse brain at 1 mg/kg, po after 2 to 6 hrs; type: ADME, organism-based; settings: in vivo, read-out: Drug uptake
[29] = Fraction unbound in mouse plasma after 24 hrs by equilibrium dialysis based LC-MS/MS analysis; type: ADME, cell-free

Question: For C[C@H]1SC(N)=N[C@](C)(c2cc(NC(=O)c3cnc(OCF)cn3)ccc2F)[C@H]1F, which AUC [1] is on record?
Answer: 429 ng·h/mL

Question: And the inhibition in vivo at 1 mg/kg (Mus musculus)?
Answer: 55%

Question: And the remaining at 2 h, 2 µM [2]?
Answer: 55%

Question: What about the clearance [3] of the same compound?
Answer: 23 mL/min/kg

Question: What about the remaining at 2 h, 2 µM [4] of the same compound?
Answer: 74%

Question: What about the fraction unbound at 24 h [5] of the same compound?
Answer: 0.12

Question: What about the Cmax [6] of the same compound?
Answer: 38.4 ng/mL

Question: What about the AUC at 336 h [7] of the same compound?
Answer: 41000 ng·h/mL

Question: And the remaining at 2 h, 2 µM [8]?
Answer: 71%

Question: And the fraction unbound at 5 h, 5 µM [9]?
Answer: 0.034

Question: What about the IC50 (Cathepsin D) of the same compound?
Answer: ≥ 100000 nM

Question: And the Tmax [10]?
Answer: 0.3 h

Question: And the Tmax [11]?
Answer: 3 h

Question: What about the “Drug uptake(free)” value [12] of the same compound?
Answer: 73 nM

Question: And the half-life [13]?
Answer: 13.7 h

Question: And the Vd [14]?
Answer: 7 L/kg

Question: And the NOAEL [15]?
Answer: > 6.9 µg/mL

Question: And the fNOAEL [15]?
Answer: 2.4 µM

Question: What about the bioavailability [16] of the same compound?
Answer: 58%

Question: What about the clearance [17] of the same compound?
Answer: 41 mL/min/kg

Question: What about the remaining at 2 h, 2 µM [18] of the same compound?
Answer: 90%

Question: And the AUC [19]?
Answer: 566 ng·h/mL

Question: What about the fraction unbound at 24 h [20] of the same compound?
Answer: 0.083

Question: What about the fraction unbound at 24 h [21] of the same compound?
Answer: 0.078

Question: And the bioavailability [22]?
Answer: 24%

Question: And the Vd [23]?
Answer: 2.8 L/kg

Question: And the Tmax [24]?
Answer: 0.7 h

Question: What about the Cmax [25] of the same compound?
Answer: 148 ng/mL

Question: What about the EC50 (Canis familiaris) of the same compound?
Answer: 1.8 nM

Question: And the half-life [26]?
Answer: 3.2 h

Question: And the Vd [27]?
Answer: 7.5 L/kg

Question: And the concentration [28]?
Answer: 87 nM

Question: And the fraction unbound at 24 h [29]?
Answer: 0.15
